Data on three compounds can be found in patent US9981956B2, “Small molecule inhibitors of fibrosis” (THE CALIFORNIA INSTITUTE FOR BIOMEDICAL RESEARCH, priority 2013, dated 2018).

The subject of data set [1] is fibroblast to myofibroblast transdifferentiation (primary human lung fibroblasts and primary rodent HSCs). Kind of data set: High content imaging and western based assay of fibroblast to myofibroblast transdifferentiation (α-SMA). It is filed as cell-based. The following applies: graded, TGF-β induced fibroblast to myofibroblast transdifferentiation.
The test system of data set [2] is Candida albicans (ATCC 10231). Kind of data set: Candida albicans anti-fungal MIC potency determination. Type of data set: cell-based. On the procedure: The wild type Candida albicans (ATCC 10231) was used and Fluconazole, amphotericin B, itraconazole and terbinafine were purchased from Sigma and used as positive controls.
The highest assay concentration for all test compounds and fluconazole was 100 μM. Fluconazole was also tested at the highest concentration of 64 μg/ml, and amphotercin B and terbinafine at 16 and 64 μg/ml. The test compounds were in DMSO stock solution at a concentration of 10 mM. Two stock solutions in DMSO were prepared for fluconazole at 10 mM and 6.4 mg/ml. Amphotericin B and terbinafine stock solutions in DMSO were prepared at 1.6 and 6.4 mg/ml.
Serial dilution of 100× stock solutions: 4 μl of stock solution was added into 196 μl of RPMI1640 (MOPS buffered and free of HEPES and sodium bicarbonate) in the first well of a row of a sterile u-bottom 96-well plate. The rest of the wells was filled with 100 μl RPMI1640. The 2-fold serial dilution was made sequentially by transferring 100 μl solution to the next well and mixing by pipetting, until 11th well. The extra 100 μl in 11th well was discarded. Therefore, the compound wells contained 100 μl of 2× of testing concentrations of drugs in RPMI1640. The 12th well was filled with only 100 μl RPMI1640.
C. albicans 3147 (ATCC 10231) glycerol frozen stock was streaked on Sabouraud dextrose agar (SDA). The plate was incubated at 35° C. ambient atmosphere for 20 h. Single colonies were suspended into sterile saline until turbidity reached 0.1 (1-5×10^6 CFU/ml) using a Siemens turbidity meter. This suspension was diluted 50× in RPMI1640 in a 15 ml conical, and then it was further diluted 20× in RPMI1640 in a 50 ml conical. This gave 1-5×10^3 CFU/ml suspension and was used as inoculum. The cell density in inoculum was plate-counted to be 4.94×10^3 CFU/ml.
The plates were incubated at 35° C. in ambient atmosphere. The photos were taken at 24 h and 48 h. The MIC end points for fluconazole and amphotericin B were read according to the M27-A3 protocol (Reference Method for Broth Dilution Antifungal Susceptibility Testing of Yeasts; Approved Standard-Third Edition, M27-A3 standard published Jan. 1, 2008 by Clinical and Laboratory Standards Institute). The MIC for compounds for test cmpds and terbinafine (not mentioned in M27-A3 protcol) were read as if they were azoles.

Data set [3] in a line: Mouse pharmacokinetic (PK) studies, snapshot format. Type of data set: in vivo. The following applies: plasma, po, 20 mg/kg; for AUC(0-t): read-out: AUC0-24 h. As to the method:
Compounds with suitable in vitro ADME properties were progressed to in vivo PK studies. A snapshot format in mice was used to quickly assess the potential for lead candidates to be orally bioavailable. The snapshot format involved a single dose (typically 20 mg/kg) given orally in a standard vehicle (5% PEG/DMSO in water for example). Compounds were infused directly into MS analysis to determine unique MRM (multiple reaction monitoring) signal that is concentration dependent in either ESI positive or negative modes. HPLC analysis using various solvent gradients was performed from organic and aqueous solution to ensure good peak shape of desired Q1/Q2 masses. Formulations included 45% Cyclodextrin in water (as is used clinically for Itraconazole). Other formulations that may used are solutol, Eudragit, MC/Tween, etc. Standard curves were generated using plasma spiked with compound at various concentrations (10 ng/mL to 2000 ng/mL) to determine linear range of Q1/Q2 mass signal to compound concentration using female mouse heparinized plasma. Mice were dosed orally with compound, plasma samples collected by retro-orbital bleeds. Five time points were collected (30 min, 1 h, 4 h, 8 h, 24 h) into heparinized collection tubes. Protein precipitation was performed and compound extracted in cold acetonitrile and analyzed by MS. Nonwinlin was used for PK modeling as needed.

The mark [4] stands for this setting: ATCC10231, 24 h, read-out: C. Albicans MIC90 at 24 h.
Where [5] appears, read: ATCC10231, 48 h, read-out: C. Albicans MIC90 at 48 h.
Setting [6] is: 20 mg/kg in 0.5% MC/0.5% TW80 suspension vehicle.
Where [7] appears, read: 20 mg/kg in 45% cyclodextrin with water.

Like-named read-outs stand apart in the source and are kept apart here.

For `CCC(C)n1ncn(-c2ccc(N3CCN(c4ccc(OC[C@@H]5CO[C@@](Cn6nccn6)(c6ccc(Cl)cc6Cl)O5)cc4)CC3)cc2)c1=O` (stereo partly drawn) [Compound 15], the EC50 in data set [1] lay within 500 to 5000 nM. Moreover, the MIC90 in data set [2] (setting [4]) and in data set [2] (setting [5]) was greater than 100 µM each time.
As to `CCC(C)n1ncn(-c2ccc(N3CCN(c4ccc(OC[C@@H]5CO[C@@](Cc6ccnnc6)(c6ccc(Cl)cc6Cl)O5)cc4)CC3)cc2)c1=O` (stereo partly drawn) [Compound 22], in data set [1], the EC50 is less than 500 nM. Also, the MIC90 in data set [2] (setting [4]) and in data set [2] (setting [5]) was greater than 100 µM throughout. Besides, the values for the peak concentration (Cmax) in data set [3] (setting [6]) and in data set [3] (setting [7]) were 170 nM and 1710 nM, respectively. For the same compound, the results for the AUC(0-t) in data set [3] (setting [6]) and in data set [3] (setting [7]) were 2.21 µM·h and 8.08 µM·h, respectively.
Take `CCC(C)n1ncn(-c2ccc(N3CCN(c4ccc(OC[C@@H]5CO[C@@](Cn6nccn6)(c6ccccc6)O5)cc4)CC3)cc2)c1=O` (stereo partly drawn) [Compound 42]: the EC50 in data set [1] is less than 500 nM. Moreover, the MIC90 in data set [2] (setting [4]) and in data set [2] (setting [5]) was greater than 100 µM each time. Also, in data set [3] (setting [7]), the Cmax came out at 3160 nM. Moreover, the AUC(0-t) in data set [3] (setting [7]) was 42.7 µM·h.

In general, EC50 refers to the midpoint of the concentration-response curve. Broadly, the MIC90 is the lowest concentration that inhibits either 90% of growth or 90% of the strains tested, depending on the study. A word on the Cmax: it is the highest concentration seen after dosing.
